Columns and labels:
ragweed [1] = experiment: Test A postemergence; format: in vivo, Ambrosia elatior
Outline: (§1)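 Injury scores run from 0, no effect, to 100, complete control, judged by eye against untreated plants roughly 10 days after treatment. Chemicals carried a surfactant in a non-phytotoxic solvent and went onto loam–sand soil preemergence or onto one- to two-leaf seedlings postemergence.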

rice = experiment: Test B flooded paddy test; format: in vivo, Oryza sativa; settings: Flood, 250 g ai/ha; 0 to 100 scale where 0 is no effect and 100 is complete control
Outline: (§2)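 Compound added straight to paddy water, with pots kept flooded 3 cm above soil, on plants grown to the 2-leaf stage. Visual scoring 0-100 (100 = complete control) against untreated controls after 13 to 15 greenhouse days.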

wheat = experiment: Test A postemergence; format: in vivo, Triticum aestivum
Outline: as §1

giant foxtail [2] = experiment: Test A preemergence; format: in vivo, Setaria faberii
Outline: as §1

pigweed [3] = experiment: Test A preemergence; format: in vivo, Amaranthus retroflexus
Outline: as §1

Italian ryegrass [4] = experiment: Test A postemergence; format: in vivo, Lolium multiflorum
Outline: as §1

barnyardgrass [5] = experiment: Test A postemergence; format: in vivo, Echinochloa crus-galli
Outline: as §1

barnyardgrass [6] = experiment: Test A preemergence; format: in vivo, Echinochloa crus-galli
Outline: as §1

corn = experiment: Test A postemergence; format: in vivo, Zea mays
Outline: as §1

sedge, umbrella = experiment: Test B flooded paddy test; format: in vivo, Cyperus difformis; settings: Flood, 250 g ai/ha; 0 to 100 scale where 0 is no effect and 100 is complete control
Outline: as §2

blackgrass = experiment: Test A postemergence; format: in vivo, Alopecurus myosuroides
Outline: as §1

galium = experiment: Test A postemergence; format: in vivo, Galium aparine
Outline: as §1

giant foxtail [7] = experiment: Test A postemergence; format: in vivo, Setaria faberii
Outline: as §1

kochia [8] = experiment: Test A postemergence; format: in vivo, Kochia scoparia
Outline: as §1

Heteranthera limosa = experiment: Test B flooded paddy test; format: in vivo; settings: Flood, 250 g ai/ha; 0 to 100 scale where 0 is no effect and 100 is complete control
Outline: as §2

barnyardgrass [9] = experiment: Test B flooded paddy test; format: in vivo, Echinochloa crus-galli; settings: Flood, 250 g ai/ha; 0 to 100 scale where 0 is no effect and 100 is complete control
Outline: as §2

ragweed [10] = experiment: Test A preemergence; format: in vivo, Ambrosia elatior
Outline: as §1

pigweed [11] = experiment: Test A postemergence; format: in vivo, Amaranthus retroflexus
Outline: as §1

kochia [12] = experiment: Test A preemergence; format: in vivo, Kochia scoparia
Outline: as §1

Italian ryegrass [13] = experiment: Test A preemergence; format: in vivo, Lolium multiflorum
Outline: as §1

[14] = 31 g ai/ha, 0 to 100 scale, 0 no effect, 100 complete control
[15] = 125 g ai/ha, 0 to 100 scale, 0 no effect, 100 complete control
[16] = 31 g ai/ha, 0 to 100 scale where 0 is no effect and 100 is complete control, visual, approximately 10 days
[17] = 125 g ai/ha, 0 to 100 scale where 0 is no effect and 100 is complete control
[18] = 500 g ai/ha, 0 to 100 scale where 0 is no effect and 100 is complete control

FC(F)(F)Sc1cnn(-c2ccccc2Oc2ncc(Br)cn2)c1 [Compound 246]
Plant response rating, Ragweed (ragweed [1]; [14]): 0 | Plant response rating, Ragweed (ragweed [1]; [15]): 0 | Plant response rating, Rice (rice): 0 | Plant response rating, Wheat (wheat; [14]): 0 | Plant response rating, Wheat (wheat; [15]): 0 | Plant response rating, Foxtail, Giant (giant foxtail [2]; [16]): 0 | Foxtail, Giant plant response rating (0 to 100 scale) (giant foxtail [2]; 125 g ai/ha): 70 | Plant response rating, Pigweed (pigweed [3]; [16]): 0 | Pigweed plant response rating (0 to 100 scale) (pigweed [3]; 125 g ai/ha): 20 | Plant response rating, Ryegrass, Italian (Italian ryegrass [4]; [14]): 0 | Plant response rating, Ryegrass, Italian (Italian ryegrass [4]; [15]): 0 | Plant response rating, Barnyardgrass (barnyardgrass [5]; [14]): 0 | Plant response rating, Barnyardgrass (barnyardgrass [5]; [15]): 0 | Plant response rating, Barnyardgrass (barnyardgrass [6]; [16]): 0 | Barnyardgrass plant response rating (0 to 100 scale, 0 is no effect, 100 is complete control) (barnyardgrass [6]; 125 g ai/ha): 30 | Plant response rating, Corn (corn; [14]): 0 | Plant response rating, Corn (corn; [15]): 20 | Plant response rating, Sedge, Umbrella (sedge, umbrella): 0 | Plant response rating, Blackgrass (blackgrass; [14]): 0 | Plant response rating, Blackgrass (blackgrass; [15]): 0 | Plant response rating, Galium (galium; [14]): 20 | Plant response rating, Galium (galium; [15]): 70 | Plant response rating, Foxtail, Giant (giant foxtail [7]; [14]): 0 | Plant response rating, Foxtail, Giant (giant foxtail [7]; [15]): 0 | Plant response rating, Kochia (kochia [8]; [14]): 20 | Plant response rating, Kochia (kochia [8]; [15]): 70 | Plant response rating, Ducksalad (Heteranthera limosa): 0 | Plant response rating, Barnyardgrass (barnyardgrass [9]): 0 | Plant response rating, Ragweed (ragweed [10]; [16]): 0 | Ragweed plant response rating (0 to 100 scale) (ragweed [10]; 125 g ai/ha): 0 | Plant response rating, Pigweed (pigweed [11]; [14]): 20 | Plant response rating, Pigweed (pigweed [11]; [15]): 40 | Plant response rating, Kochia (kochia [12]; [16]): 0 | Kochia plant response rating (0 to 100 scale) (kochia [12]; 125 g ai/ha): 0 | Plant response rating, Ryegrass, Italian (Italian ryegrass [13]; [16]): 0 | Ryegrass, Italian plant response rating (0 to 100 scale) (Italian ryegrass [13]; 125 g ai/ha): 0

N#Cc1cnn(-c2c(CF)cccc2Oc2ncc(Br)cn2)c1 [Compound 243]
Plant response rating, Ragweed (ragweed [1]; [14]): 20 | Plant response rating, Ragweed (ragweed [1]; [15]): 20 | Plant response rating, Rice (rice): 0 | Plant response rating, Wheat (wheat; [14]): 0 | Plant response rating, Wheat (wheat; [15]): 20 | Plant response rating, Foxtail, Giant (giant foxtail [2]; [16]): 0 | Foxtail, Giant plant response rating (0 to 100 scale) (giant foxtail [2]; 125 g ai/ha): 100 | Plant response rating, Pigweed (pigweed [3]; [16]): 0 | Pigweed plant response rating (0 to 100 scale) (pigweed [3]; 125 g ai/ha): 80 | Plant response rating, Ryegrass, Italian (Italian ryegrass [4]; [14]): 0 | Plant response rating, Ryegrass, Italian (Italian ryegrass [4]; [15]): 0 | Plant response rating, Barnyardgrass (barnyardgrass [5]; [14]): 0 | Plant response rating, Barnyardgrass (barnyardgrass [5]; [15]): 0 | Plant response rating, Barnyardgrass (barnyardgrass [6]; [16]): 0 | Barnyardgrass plant response rating (0 to 100 scale, 0 is no effect, 100 is complete control) (barnyardgrass [6]; 125 g ai/ha): 30 | Plant response rating, Corn (corn; [14]): 0 | Plant response rating, Corn (corn; [15]): 0 | Plant response rating, Sedge, Umbrella (sedge, umbrella): 0 | Plant response rating, Blackgrass (blackgrass; [14]): 0 | Plant response rating, Blackgrass (blackgrass; [15]): 30 | Plant response rating, Galium (galium; [14]): 0 | Plant response rating, Galium (galium; [15]): 10 | Plant response rating, Foxtail, Giant (giant foxtail [7]; [14]): 0 | Plant response rating, Foxtail, Giant (giant foxtail [7]; [15]): 10 | Plant response rating, Kochia (kochia [8]; [14]): 20 | Plant response rating, Kochia (kochia [8]; [15]): 30 | Plant response rating, Ducksalad (Heteranthera limosa): 30 | Plant response rating, Barnyardgrass (barnyardgrass [9]): 0 | Plant response rating, Ragweed (ragweed [10]; [16]): 0 | Ragweed plant response rating (0 to 100 scale) (ragweed [10]; 125 g ai/ha): 20 | Plant response rating, Pigweed (pigweed [11]; [14]): 10 | Plant response rating, Pigweed (pigweed [11]; [15]): 20 | Plant response rating, Kochia (kochia [12]; [16]): 0 | Kochia plant response rating (0 to 100 scale) (kochia [12]; 125 g ai/ha): 90 | Plant response rating, Ryegrass, Italian (Italian ryegrass [13]; [16]): 0 | Ryegrass, Italian plant response rating (0 to 100 scale) (Italian ryegrass [13]; 125 g ai/ha): 0

CC(C)c1cnc(Oc2cccc(C#N)c2-n2cc(Br)cn2)nc1 [Compound 130]
Ragweed plant response rating (ragweed [1]; [17]): 0 | Plant response rating, Ragweed (ragweed [1]; [18]): 0 | Plant response rating, Rice (rice): 0 | Wheat plant response rating (wheat; [17]): 0 | Plant response rating, Wheat (wheat; [18]): 0 | Plant response rating, Foxtail, Giant (giant foxtail [2]; [17]): 0 | Foxtail, Giant plant response rating (giant foxtail [2]; [18]): 0 | Plant response rating, Pigweed (pigweed [3]; [17]): 0 | Pigweed plant response rating (pigweed [3]; [18]): 0 | Ryegrass, Italian plant response rating (Italian ryegrass [4]; [17]): 0 | Plant response rating, Ryegrass, Italian (Italian ryegrass [4]; [18]): 0 | Barnyardgrass plant response rating (barnyardgrass [5]; [17]): 0 | Plant response rating, Barnyardgrass (barnyardgrass [5]; [18]): 0 | Plant response rating, Barnyardgrass (barnyardgrass [6]; [17]): 0 | Barnyardgrass plant response rating (barnyardgrass [6]; [18]): 0 | Corn plant response rating (corn; [17]): 0 | Plant response rating, Corn (corn; [18]): 0 | Plant response rating, Sedge, Umbrella (sedge, umbrella): 0 | Blackgrass plant response rating (blackgrass; [17]): 0 | Plant response rating, Blackgrass (blackgrass; [18]): 0 | Galium plant response rating (galium; [17]): 0 | Plant response rating, Galium (galium; [18]): 0 | Foxtail, Giant plant response rating (giant foxtail [7]; [17]): 0 | Plant response rating, Foxtail, Giant (giant foxtail [7]; [18]): 0 | Kochia plant response rating (kochia [8]; [17]): 0 | Plant response rating, Kochia (kochia [8]; [18]): 0 | Plant response rating, Ducksalad (Heteranthera limosa): 0 | Plant response rating, Barnyardgrass (barnyardgrass [9]): 0 | Plant response rating, Ragweed (ragweed [10]; [17]): 0 | Ragweed plant response rating (ragweed [10]; [18]): 0 | Pigweed plant response rating (pigweed [11]; [17]): 0 | Plant response rating, Pigweed (pigweed [11]; [18]): 0 | Plant response rating, Kochia (kochia [12]; [17]): 0 | Kochia plant response rating (kochia [12]; [18]): 0 | Plant response rating, Ryegrass, Italian (Italian ryegrass [13]; [17]): 0 | Ryegrass, Italian plant response rating (Italian ryegrass [13]; [18]): 0

From US9695155B2, “Herbicidal substituted pyrimidinyloxy benzene compounds” (E. I. DU PONT DE NEMOURS AND COMPANY, priority 2013, dated 2017)
